The values below come from US20070277254A1, “Method for Increasing Ploidy in a Plant” (priority 2003, published 2007).

In data set [1] the test system is apical buds of budded plants. Briefly: Ploidy increase in buds treated with colchicine, stomata on leaves counted per unit area and compared to the parent. Type of data set: in vivo. The note with it: twice daily for five days minimum. On the procedure:
Firstly, the plants are budded (on a selected root stock), then they are held in a dormant state and the appropriate chill requirement is given in a cool room (if required). The plants are then removed to a warm environment to prime the bud (which is still dormant). This is continued up to the point at which dormancy is “broken”, cell division is commenced. The bud is then wrapped in absorbent substance, the absorbent material is injected with a 1% aqueous solution of the colchicine drug. Note that this is 10× higher concentration than normal treatments. A plastic surround is used to enclose the bud, to keep it moist but exposed to the drug. This treatment is repeated twice daily for five days minimum.
In a next step, to determine whether a ploidy increase has resulted, the stomata on leaves are counted per unit area and compared to the parent. Unexpectedly, it is observed that between 10-20% of the apical buds have their ploidy level increased as a result of this process (compared with only approx 1% in normal techniques). Thus, for example, in citrus, plant leaves become shorter, thicker, wider and oil glands become more prominent.

Data set [2] deals with apical buds of budded plants. The note with it: normal techniques (comparison; about 10x lower colchicine concentration); cited from earlier work.

Structures are written as SMILES. Like-named read-outs stand apart in the source and are kept apart here.

Regarding `COc1cc2c(c(OC)c1OC)-c1ccc(OC)c(=O)cc1[C@@H](NC(C)=O)CC2` [colchicine], the entries for the “apical buds having their ploidy level increased” value in data set [1] (1% aqueous solution of colchicine injected into absorbent wrap around bud at break of dormancy) and in data set [2] were 10-20% and “approx 1%”, respectively. Moreover, the “effect on original growing point (main bud)” value in data set [1] (1% aqueous solution of colchicine) is “generally killed”.
